Each structure is given as a SMILES string.

Among the data in patent US20220098154A1 (IDEAYA Biosciences, Inc., priority 2019, published 2022) are IC50 values, retold here.

The assay deals with T1, Pol theta polymerase domain (residues 1819-2590) (Homo sapiens, UniProt O75417).
T1 construct: Pol theta polymerase domain (residues 1819-2590)
T1 sequence (O75417 1819-2590): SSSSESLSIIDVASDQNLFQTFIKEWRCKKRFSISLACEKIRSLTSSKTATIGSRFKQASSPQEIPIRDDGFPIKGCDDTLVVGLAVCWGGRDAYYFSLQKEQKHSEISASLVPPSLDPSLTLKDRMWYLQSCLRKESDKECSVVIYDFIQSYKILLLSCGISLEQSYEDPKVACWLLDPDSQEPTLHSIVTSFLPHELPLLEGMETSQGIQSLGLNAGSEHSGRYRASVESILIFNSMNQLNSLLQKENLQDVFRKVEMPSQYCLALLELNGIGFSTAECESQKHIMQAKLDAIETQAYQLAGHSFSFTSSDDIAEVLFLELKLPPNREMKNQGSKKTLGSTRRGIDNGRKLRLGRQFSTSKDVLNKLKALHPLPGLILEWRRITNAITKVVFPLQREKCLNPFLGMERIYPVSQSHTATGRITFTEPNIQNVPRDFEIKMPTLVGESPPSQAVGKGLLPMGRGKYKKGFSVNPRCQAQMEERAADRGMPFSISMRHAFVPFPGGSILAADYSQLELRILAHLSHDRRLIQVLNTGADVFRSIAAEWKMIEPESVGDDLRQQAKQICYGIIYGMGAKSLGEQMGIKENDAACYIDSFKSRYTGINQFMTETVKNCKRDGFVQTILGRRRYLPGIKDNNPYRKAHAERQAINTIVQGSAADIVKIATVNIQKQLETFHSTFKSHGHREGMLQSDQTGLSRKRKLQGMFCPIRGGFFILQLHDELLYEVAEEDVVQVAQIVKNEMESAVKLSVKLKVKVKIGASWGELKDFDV
Put plainly: Primer extension assay: inhibition of polymerase activity of Pol theta (molecular beacon fluorescence). The format is biochemical. Conditions: Pol theta polymerase domain 4 nM; 15 min pre-incubation; fluorescence change over 30 min (ex 485 nm, em 535 nm); 11-point dilution series. The protocol: The ability of the compounds of Formula (I) to inhibit polymerase activity of Pol theta was determined using the assay described below.
A mixture of 20 uL of Pol theta polymerase domain (residues 1819-2590) at a final concentration of 4 nM in assay buffer (20 m M TRIS, pH 7.80, 50 mM KCl, 10 mM MgCl2, 1 mM DTT, 0.01% BSA, 0.01% Tween20) was added to test compounds (11-point dilution series of test compounds) except the low control wells without test compounds. The above enzyme and test compound inhibitor mixture was then incubated at room temperature for 15 min. An equal volume (20 μl) of dNTP substrate mixture (48 μM) and primed molecular beacon DNA (obtained by annealing template SEQ ID NO 2: (5′-CCTTCCTCCCGTGTCTTG-TACCTTCCCGTCA-GGAGGAAGG-3′) with 5′-TAMRA and 3′-BHQ and primer DNA (SEQ ID NO: 3; 5′-GACGGGAAGG-3′) in 10 mM Tris-HCl pH 8.0, 100 mM NaCl buffer) (96 nM) in assay buffer was added to all the test wells. The inhibition activity was measured by monitoring the fluorescence change over 30 min at 535 nm upon excitation at 485 nm. The high control (DMSO with enzyme) with high fluorescence intensity represents no inhibition of polymerase reaction while the low control (DMSO with buffer) with low fluorescence intensity represents full inhibition of polymerase activity. Slope of the reaction progress curves were used to calculate the rate of polymerization. The rates were used to determine the percent inhibition using a four-parameter inhibition model to generate IC50, Hill slope and max inhibition.
Consider `Cc1nc(NCC(=O)N(C)c2ccc(F)cc2)c(Cl)c(C)c1Cl` [Example 23, 2-(3,5-dichloro-4,6-dimethylpyridin-2-ylamino)-N-(4-fluoro-phenyl)-N-methylacetamide], for which the IC50 (commonly the point on the concentration scale where inhibition reaches its midpoint) was < 200 nM. As for `Cc1c(Cl)cnc(NCC(=O)N(C)c2ccccc2)c1C#N` [Example 37, 2-(5-chloro-3-cyano-4-methylpyridin-2-ylamino)-N-methyl-N-phenylacetamide], the figure is 200 to 500 nM; as for `COc1ccc(N(C)C(=O)CNc2nc(C(F)(F)F)cc(C(F)(F)F)c2C#N)cc1` [Example 9, 2-[[3-cyano-4,6-bis(trifluoromethyl)pyridin-2-yl]-amino]-N-(4-methoxyphenyl)-N-methylacetamide], < 200 nM. As for `CN(C(=O)CNc1nc(C(F)(F)F)cc(C(F)(F)F)c1C#N)c1ccc2[nH]ccc2c1` [Example 56, 2-((3-cyano-4,6-bis(trifluoromethyl)pyridin-2-yl)amino)-N-(1H-indol-5-yl)-N-methylacetamide], the figure is < 200 nM.

Turning to `CN(C(=O)CNc1nc(C(F)(F)F)cc(C(F)(F)F)c1C#N)c1ccc(F)cc1Cl` [Example 48, N-(2-chloro-4-fluorophenyl)-2-((3-cyano-4,6-bis(trifluoromethyl)pyridin-2-yl)-amino)-N-methylacetamide], the IC50 is < 200 nM. Turning to `Cc1nc(NCC(=O)N(C)c2ccc(F)cc2)c(C#N)c2ccccc12` [Example 19, 2-[(4-cyano-1-methylisoquinolin-3-yl)amino]-N-(4-fluorophenyl)-N-methylacetamide], the 50% inhibitory concentration (IC50) was < 200 nM. Turning to `CN(C(=O)COc1cc(Cl)cc(C(F)(F)F)c1)c1ccc(F)cc1` [Example 14, 2-[3-chloro-5-(trifluoromethyl)phenoxy]-N-(4-fluoro-phenyl)-N-methylacetamide], the IC50 fell in the range of 200 to 500 nM. In turn, `Cc1nc(NCC(=O)N(C)c2cccc(C#N)c2)c(C#N)c(C)c1Cl` [Example 21, 2-((5-chloro-3-cyano-4,6-dimethylpyridin-2-yl)-amino)-N-(3-cyanophenyl)-N-methylacetamide] came in with an IC50 of 200 to 500 nM. As for `CN(C(=O)CNc1nc(C(F)(F)F)cc(C(F)(F)F)c1C#N)c1ccc(C#N)cc1` [Example 3, 2-((3-cyano-4,6-bis(trifluoromethyl)pyridin-2-yl)-amino)-N-(4-cyanophenyl)-N-methylacetamide], the figure is 200 to 500 nM. The value for `Cc1nc(N[C@@H](CCO)C(=O)N(C)c2ccc(F)cc2)c(C#N)c(C)c1Cl` [Example 15, (S)-2-(5-chloro-3-cyano-4,6-dimethylpyridin-2-yl-amino)-N-(4-fluorophenyl)-4-hydroxy-N-methyl-butanamide] was 200 to 500 nM; that for `CN(C(=O)CNc1nc(C(F)(F)F)cc(C(F)(F)F)c1C#N)c1ccc(F)cc1` [Example 10, 2-(3-cyano-4,6-bis(trifluoromethyl)pyridin-2-yl-amino)-N-(4-fluorophenyl)-N-methylacetamide] was < 200 nM. As for `CN(C(=O)CNc1cc(Cl)cc(Br)c1)c1ccc(F)cc1` [Example 20, 2-[(3-bromo-5-chlorophenyl)amino]-N-(4-fluoro-phenyl)-N-methylacetamide], the figure is 200 to 500 nM; as for `CN(C(=O)CNc1cc(Cl)cc(Cl)c1)c1ccc(F)cc1` [Example 31, 2-[(3,5-dichlorophenyl)amino]-N-(4-fluorophenyl)-N-methyl-acetamide], 500 to 1000 nM; as for `CN(C(=O)CNc1nc(C(F)(F)F)cc(C(F)(F)F)c1C#N)c1ccc2sccc2c1` [Example 53, N-(benzo[b]thiophen-5-yl)-2-((3-cyano-4,6-bis(trifluoromethyl)pyridin-2-yl)-amino)-N-methylacetamide], < 200 nM.

In the case of `Cc1coc2ccc(N(C)C(=O)CNc3nc(C(F)(F)F)cc(C(F)(F)F)c3C#N)cc12` [Example 51, 2-((3-cyano-4,6-bis(trifluoromethyl)pyridin-2-yl)amino)-N-methyl-N-(3-methylbenzofuran-5-yl)acetamide], the IC50 is < 200 nM.

With `CN(C(=O)CNc1nc(C(F)(F)F)cc(C(F)(F)F)c1C#N)c1cc(Cl)cc(Cl)c1` [Example 60, 2-((3-cyano-4,6-bis(trifluoromethyl)pyridin-2-yl)amino)-N-(3,5-dichlorophenyl)-N-methylacetamide], the IC50 was < 200 nM.

For `CN(C(=O)CNc1ncc2c(c1C#N)CCC2)c1ccc(F)cc1` [Example 24, 2-(4-cyano-6,7-dihydro-5H-cyclopenta[c]pyridin-3-ylamino)-N-(4-fluorophenyl)-N-methylacetamide], the IC50 fell in the range of 500 to 1000 nM. As for `CN(C(=O)CNc1nc(C(F)(F)F)cc(C(F)(F)F)c1C#N)c1ccc2nccnc2c1` [Example 58, 2-((3-cyano-4,6-bis(trifluoromethyl)pyridin-2-yl)amino)-N-methyl-N-(quinoxalin-6-yl)acetamide], the figure is < 200 nM; as for `CN(C(=O)CNc1nc(C(F)(F)F)cc(C(F)(F)F)c1C#N)c1ccc(OC2CC2)cc1` [Example 5, 2-((3-cyano-4,6-bis(trifluoromethyl)pyridin-2-yl)-amino)-N-(4-cyclopropoxyphenyl)-N-methyl-acetamide], < 200 nM; as for `COc1ccc(N(C)C(=O)CNc2nc(C)c(Cl)c(C)c2C#N)cc1` [Example 22, 2-(5-chloro-3-cyano-4,6-dimethylpyridin-2-ylamino)-N-(4-methoxyphenyl)-N-methylacetamide], < 200 nM. The molecule `CC(=O)N1Cc2ccc(N(C)C(=O)CNc3nc(C(F)(F)F)cc(C(F)(F)F)c3C#N)cc2C1` [Example 59, N-(2-acetylisoindolin-5-yl)-2-((3-cyano-4,6-bis(trifluoromethyl)pyridin-2-yl)amino)-N-methylacetamide] registered an IC50 of 500 to 1000 nM. As for `CN(C(=O)CNc1nc(C(F)(F)F)cc(C(F)(F)F)c1C#N)c1ccc2ncncc2c1` [Example 57, 2-((3-cyano-4,6-bis(trifluoromethyl)pyridin-2-yl)amino)-N-methyl-N-(quinazolin-6-yl)acetamide], the figure is 200 to 500 nM; as for `Cc1nc(NCC(=O)N(C)c2ccc(F)cc2F)c(C#N)c(C)c1Cl` [Example 26, 2-((5-chloro-3-cyano-4,6-dimethylpyridin-2-yl)-amino)-N-(2,4-difluorophenyl)-N-methylacetamide], < 200 nM; as for `CN(C(=O)CNc1cc(Cl)cc(C(F)(F)F)c1)c1ccc(F)cc1` [Example 13, 3-[[3-chloro-5-(trifluoromethyl)phenyl]amino]-N-(4-fluoro-phenyl)-N-methylacetamide], < 200 nM.

Turning to `Cc1nc(NCC(=O)N(C)c2ccc(Br)cc2)c(C#N)c(C)c1Cl` [Example 39, N-(4-bromophenyl)-2-(5-chloro-3-cyano-4,6-dimethyl-pyridin-2-ylamino)-N-methylacetamide], the IC50 was < 200 nM. `Cc1c(C#N)c(NCC(=O)N(C)c2ccc(F)cc2)nc2ccccc12` [Example 29, 2-[(3-cyano-4-methylquinolin-2-yl)amino]-N-(4-fluorophenyl)-N-methylacetamide] displayed an IC50 of 500 to 1000 nM. As for `CN(C(=O)CNc1nc(C(F)(F)F)cc(C(F)(F)F)c1C#N)c1ccc2c(ccn2C)c1` [Example 55, 2-((3-cyano-4,6-bis(trifluoromethyl)pyridin-2-yl)amino)-N-methyl-N-(1-methyl-1H-indol-5-yl)acetamide], the figure is < 200 nM; as for `Cc1cc(OCC(=O)N(C)c2ccccc2)nc(C)c1Cl` (racemic) [Example 36, 2-(5-chloro-4,6-dimethylpyridin-2-yloxy)-N-methyl-N-phenyl-acetamide], 200 to 500 nM.

As for `CN(C(=O)CNc1nc(C(F)(F)F)cc(C(F)(F)F)c1C#N)c1ccc2occc2c1` [Example 46, N-(benzofuran-5-yl)-2-((3-cyano-4,6-bis(trifluoromethyl)pyridin-2-yl)amino)-N-methylacetamide], the half-inhibitory concentration (IC50) was < 200 nM.
